Publication PMC6389950, “Small Peptide Ligands for Targeting EGFR in Triple Negative Breast Cancer Cells” (Scientific Reports, 2019)

Assays:
Test in all cases: Peptide array-whole cell binding assay
Assay type in all cases: cell-based
MDA-MB-436 = settings: peptide conjugated to cellulose membrane (amino-PEG500), no free C-terminus; cells 75 × 10^3 cells/mL, 37 °C, 4 h; CyQUANT fluorescence relative to peptide 1; spots in duplicate
Description: (§1) Peptide array on the cellulose membrane was used to evaluate the binding of each peptide to different cell lines. The amino functionalized cellulose membrane provided by Intavis is acid hardened providing high stability at pH range from 1–14, permitting its use in acidic or basic conditions while maintaining membrane integrity. The PEG linker on membrane surface functions as a hydrophilic spacer between the peptide and the solid surface (membrane) reducing background signal. Cell lines were carefully selected for screening peptides as our goal here is to screen peptides with high binding/uptake by the TNBC cells. […] EGFR is overexpressed by a number of TNBC cells such as MDA-MB-468 (obtained from primary tumor source) and MDA-MB-231 (from metastasis cancer tissue)[13],[14]. While other TNBC cells like MDA-MB-436 (obtained from metastasis cancer tissue) are known to express low levels of EGFR. Non-tumorigenic epithelial MCF10A and MCF12A cells derived from the breast tissue also express low levels of EGFR[14],[34]. We selected two TNBC cell lines with relatively high expression of EGFR expression (MDA-MB-468/231) and a TNBC cell line with low level of EGFR expression (MDA-MB-436) for the peptide array screening experiments. In addition, non- tumorigenic cell line, MCF-10A was used for comparison. These four cell lines were allowed to bind the membrane by seeding the cells on the membrane and the bound cells were labeled with a fluorescent dye CyQUANT.
(§2) For the binding assay, the peptide array was incubated with the cells in sequential steps as described previously. Briefly peptide array membrane was dipped in ethanol for 30 s to remove any precipitation on it, followed by dipping in sterile PBS (pH 7.4) for another 30 min. The cells (75 × 10^3 cells/mL) were seeded directly on the membrane in a sterile plate and incubated at 37 °C for 4 h. The unbound cells were washed out with sterile PBS (pH 7.4). Thereafter the membrane was placed in a sealed bag and transferred to −80 °C freezer for 2 h. Subsequently it was defrosted at room temperature and treated with CyQUANT solution. The CyQUANT concentration was optimized based on the manufacturer’s protocol and preliminary experiments. Membrane was incubated at 37 °C for 30 min with the dye. After washing with sterile PBS and air drying using blow dryer, the membrane was scanned using Bio-rad chemidoc imager with image lab software. The settings were adjusted based on the excitation (465 nm) and emission (535 nm) wavelengths of CyQUANT dye. Epi Blue was selected for the light source (455–485 nm) and filter number 4 (blue filter, 518–546 nm) was employed. The fluorescence intensity of cancer cells read using chemidoc imager was normalized using the non-cancer cell fluorescence intensity. Eventually relative fluorescence was assessed to select peptides with high affinity to cancer cells and low or minimal binding to normal cells.

MDA-MB-468 = settings: peptide conjugated to cellulose membrane (amino-PEG500), no free C-terminus; cells 75 × 10^3 cells/mL, 37 °C, 4 h; CyQUANT fluorescence relative to peptide 1; spots in duplicate
Description: as §1, §2

MDA-MB-231 = settings: peptide conjugated to cellulose membrane (amino-PEG500), no free C-terminus; cells 75 × 10^3 cells/mL, 37 °C, 4 h; CyQUANT fluorescence relative to peptide 1; spots in duplicate
Description: as §1, §2

MCF-10A = settings: non-tumorigenic cells; peptide conjugated to cellulose membrane (amino-PEG500); cells 75 × 10^3 cells/mL, 37 °C, 4 h; CyQUANT fluorescence relative to peptide 1; spots in duplicate
Description: as §1, §2

Substance: AHWYGYTPQNVI [Peptide 6]
- Relative Cell Adhesion MDA-MB-436 (MDA-MB-436): 1.0
- Relative Cell Adhesion MDA-MB-468 (MDA-MB-468): 1.2
- Relative Cell Adhesion MDA-MB-231 (MDA-MB-231): 1.3
- Relative Cell Adhesion MCF-10A (MCF-10A): 1.1

Substance: FHWYGYTPQNVI [Peptide 28]
- Relative Cell Adhesion MDA-MB-436 (MDA-MB-436): 0.8
- Relative Cell Adhesion MDA-MB-468 (MDA-MB-468): 1.2
- Relative Cell Adhesion MDA-MB-231 (MDA-MB-231): 1.5
- Relative Cell Adhesion MCF-10A (MCF-10A): 1.2

Substance: HWYGYTPQNVI [Peptide 20]
- Relative Cell Adhesion MDA-MB-436 (MDA-MB-436): 1.0
- Relative Cell Adhesion MDA-MB-468 (MDA-MB-468): 1.2
- Relative Cell Adhesion MDA-MB-231 (MDA-MB-231): 1.5
- Relative Cell Adhesion MCF-10A (MCF-10A): 1.2

Substance: Peptide 2: scrambled negative control sequence WQTNYIHPYVYG
- Relative Cell Adhesion MDA-MB-436 (MDA-MB-436): 1.1
- Relative Cell Adhesion MDA-MB-468 (MDA-MB-468): 1.1
- Relative Cell Adhesion MDA-MB-231 (MDA-MB-231): 1.2
- Relative Cell Adhesion MCF-10A (MCF-10A): 1.0

Substance: WXEAAYQRFL [Peptide 5, positive control, peptide 18 from a previous study, WXEAAYQRFL, reference compound]
- Relative Cell Adhesion MDA-MB-436 (MDA-MB-436): 1.8
- Relative Cell Adhesion MDA-MB-468 (MDA-MB-468): 1.3
- Relative Cell Adhesion MDA-MB-231 (MDA-MB-231): 1.7
- Relative Cell Adhesion MCF-10A (MCF-10A): 1.7

Substance: WYGYTPQNVI [Peptide 21]
- Relative Cell Adhesion MDA-MB-436 (MDA-MB-436): 1.0
- Relative Cell Adhesion MDA-MB-468 (MDA-MB-468): 1.4
- Relative Cell Adhesion MDA-MB-231 (MDA-MB-231): 1.9
- Relative Cell Adhesion MCF-10A (MCF-10A): 1.2

Substance: YAWYGYTPQNVI [Peptide 7]
- Relative Cell Adhesion MDA-MB-436 (MDA-MB-436): 1.0
- Relative Cell Adhesion MDA-MB-468 (MDA-MB-468): 1.1
- Relative Cell Adhesion MDA-MB-231 (MDA-MB-231): 1.1
- Relative Cell Adhesion MCF-10A (MCF-10A): 1.0

Substance: YGPWYNHYITQV [Peptide 3]
- Relative Cell Adhesion MDA-MB-436 (MDA-MB-436): 1.1
- Relative Cell Adhesion MDA-MB-468 (MDA-MB-468): 1.0
- Relative Cell Adhesion MDA-MB-231 (MDA-MB-231): 1.1
- Relative Cell Adhesion MCF-10A (MCF-10A): 1.0

Substance: YHAYGYTPQNVI [Peptide 8]
- Relative Cell Adhesion MDA-MB-436 (MDA-MB-436): 0.9
- Relative Cell Adhesion MDA-MB-468 (MDA-MB-468): 0.8
- Relative Cell Adhesion MDA-MB-231 (MDA-MB-231): 1.0
- Relative Cell Adhesion MCF-10A (MCF-10A): 0.9

Substance: YHWAGYTPQNVI [Peptide 9]
- Relative Cell Adhesion MDA-MB-436 (MDA-MB-436): 1.2
- Relative Cell Adhesion MDA-MB-468 (MDA-MB-468): 1.3
- Relative Cell Adhesion MDA-MB-231 (MDA-MB-231): 1.4
- Relative Cell Adhesion MCF-10A (MCF-10A): 1.0

Substance: YHWFGYTPQNVI [Peptide 29]
- Relative Cell Adhesion MDA-MB-436 (MDA-MB-436): 1.1
- Relative Cell Adhesion MDA-MB-468 (MDA-MB-468): 1.2
- Relative Cell Adhesion MDA-MB-231 (MDA-MB-231): 1.7
- Relative Cell Adhesion MCF-10A (MCF-10A): 1.1

Substance: YHWYAYTPQNVI [Peptide 10]
- Relative Cell Adhesion MDA-MB-436 (MDA-MB-436): 1.2
- Relative Cell Adhesion MDA-MB-468 (MDA-MB-468): 1.3
- Relative Cell Adhesion MDA-MB-231 (MDA-MB-231): 1.5
- Relative Cell Adhesion MCF-10A (MCF-10A): 1.1

Substance: YHWYGATPQNVI [Peptide 11]
- Relative Cell Adhesion MDA-MB-436 (MDA-MB-436): 1.0
- Relative Cell Adhesion MDA-MB-468 (MDA-MB-468): 1.2
- Relative Cell Adhesion MDA-MB-231 (MDA-MB-231): 1.3
- Relative Cell Adhesion MCF-10A (MCF-10A): 1.0

Substance: YHWYGFTPQNVI [Peptide 30]
- Relative Cell Adhesion MDA-MB-436 (MDA-MB-436): 0.9
- Relative Cell Adhesion MDA-MB-468 (MDA-MB-468): 1.3
- Relative Cell Adhesion MDA-MB-231 (MDA-MB-231): 1.5
- Relative Cell Adhesion MCF-10A (MCF-10A): 1.0

Substance: YHWYGYAPQNVI [Peptide 12]
- Relative Cell Adhesion MDA-MB-436 (MDA-MB-436): 1.0
- Relative Cell Adhesion MDA-MB-468 (MDA-MB-468): 1.0
- Relative Cell Adhesion MDA-MB-231 (MDA-MB-231): 1.3
- Relative Cell Adhesion MCF-10A (MCF-10A): 1.1

Substance: YHWYGYTAQNVI [Peptide 13]
- Relative Cell Adhesion MDA-MB-436 (MDA-MB-436): 1.1
- Relative Cell Adhesion MDA-MB-468 (MDA-MB-468): 1.3
- Relative Cell Adhesion MDA-MB-231 (MDA-MB-231): 1.5
- Relative Cell Adhesion MCF-10A (MCF-10A): 1.1

Substance: YHWYGYTPANVI [Peptide 14]
- Relative Cell Adhesion MDA-MB-436 (MDA-MB-436): 1.2
- Relative Cell Adhesion MDA-MB-468 (MDA-MB-468): 1.4
- Relative Cell Adhesion MDA-MB-231 (MDA-MB-231): 1.7
- Relative Cell Adhesion MCF-10A (MCF-10A): 1.2

Substance: YHWYGYTPQAVI [Peptide 15]
- Relative Cell Adhesion MDA-MB-436 (MDA-MB-436): 0.9
- Relative Cell Adhesion MDA-MB-468 (MDA-MB-468): 1.2
- Relative Cell Adhesion MDA-MB-231 (MDA-MB-231): 1.6
- Relative Cell Adhesion MCF-10A (MCF-10A): 1.1

Substance: YHWYGYTPQN [Peptide 19]
- Relative Cell Adhesion MDA-MB-436 (MDA-MB-436): 1.1
- Relative Cell Adhesion MDA-MB-468 (MDA-MB-468): 1.3
- Relative Cell Adhesion MDA-MB-231 (MDA-MB-231): 2.0
- Relative Cell Adhesion MCF-10A (MCF-10A): 1.1

Substance: YHWYGYTPQNAI [Peptide 16]
- Relative Cell Adhesion MDA-MB-436 (MDA-MB-436): 1.0
- Relative Cell Adhesion MDA-MB-468 (MDA-MB-468): 1.1
- Relative Cell Adhesion MDA-MB-231 (MDA-MB-231): 1.4
- Relative Cell Adhesion MCF-10A (MCF-10A): 1.2

Substance: YHWYGYTPQNV [Peptide 18]
- Relative Cell Adhesion MDA-MB-436 (MDA-MB-436): 1.3
- Relative Cell Adhesion MDA-MB-468 (MDA-MB-468): 1.4
- Relative Cell Adhesion MDA-MB-231 (MDA-MB-231): 1.9
- Relative Cell Adhesion MCF-10A (MCF-10A): 1.2

Substance: YHWYGYTPQNVA [Peptide 17]
- Relative Cell Adhesion MDA-MB-436 (MDA-MB-436): 1.2
- Relative Cell Adhesion MDA-MB-468 (MDA-MB-468): 1.4
- Relative Cell Adhesion MDA-MB-231 (MDA-MB-231): 1.6
- Relative Cell Adhesion MCF-10A (MCF-10A): 1.2

Substance: YKWYGYTPQNVI [Peptide 24]
- Relative Cell Adhesion MDA-MB-436 (MDA-MB-436): 1.0
- Relative Cell Adhesion MDA-MB-468 (MDA-MB-468): 1.1
- Relative Cell Adhesion MDA-MB-231 (MDA-MB-231): 1.4
- Relative Cell Adhesion MCF-10A (MCF-10A): 1.0

Substance: YRWYGYTPQNVI [Peptide 25]
- Relative Cell Adhesion MDA-MB-436 (MDA-MB-436): 1.0
- Relative Cell Adhesion MDA-MB-468 (MDA-MB-468): 1.4
- Relative Cell Adhesion MDA-MB-231 (MDA-MB-231): 1.9
- Relative Cell Adhesion MCF-10A (MCF-10A): 1.2
